≈ marks a conversion by molar mass, not a printed value. Entries after “also recorded” stand apart in the source; their conditions may differ.
Tests used:
[1] = test system: Enterococcus faecalis strain G; test: Determination of the MIC, 24 hour turbidity assay (optical density at 650 nm); format: cell-based
Protocol: Materials and Methods. • A Versamax™ temperature-controlled spectrophotometeric plate reader was used to continuously monitor growth of bacteria. This device accepts standard microtiter plates and maintains a constant temperature as desired. It therefore serves both as an incubator and as a plate reader that quantitatively monitors bacterial growth by following the development of turbidity in the wells. The device is supported by software which allows generation of individual growth curves for each well. • Enterococcus faecalis strain G was used. This bacterium was selected to establish a baseline to which other bacteria may be compared in the future. It is a stable strain and is streptomycin-resistant, which allows the use of this antibiotic agent in the growth media to reduce the incidence of accidental contamination with other bacterial strains. • Growth medium and conditions. The tests were conducted using Brain-Heart Infusion broth (BHI) as growth medium. This medium contained 1 mg/100 ml glucose which is approximately equivalent to serum concentration of glucose. A temperature of 37 C was maintained throughout the test. • Antibacterial agents. […] The Triclosan was initially dissolved in […] at a concentration of 10 mg/ml. […] Two types of non-woven fabric were used. The material was cut to standard size of 6 mm2. […] The growth medium contained 1 mg/100 mL glucose, which is approximately equivalent to the concentration that may be present in human blood. […] Bacteria were added at 10^6 CFU/well and the turbidity in the well was continuously monitored for up to 24 h to monitor the growth of the bacteria. Each group consisted of 8 wells with respective concentrations. Wells containing bacteria with no antibacterial agent served as a positive control. […] Bacteria were added to the same wells at time 0 and then at 24 and 48 h. Bacterial growth was monitored for 24 h after each addition. • (c) Determination of the MIC of Triclosan: The antibacterial effect of Triclosan was tested in 24 hour assays in order to define its MIC. Each well contained 200 μL of sterile growth medium. A range of Triclosan concentrations was added to respective wells. Bacteria were added at 10^6 CFU/well, and the turbidity in the well was continuously monitored for 24 h to monitor bacterial growth. Each group consisted of 8 wells with respective concentrations. Wells containing bacteria with no antibacterial agent served as a positive control. […] Each sample was attached to a special insert that allowed the material to be inserted into the wells of a microtiter plate without interfering with turbidity measurements in that well.

[2] = test system: Enterococcus faecalis strain G; details: GOx 6 μg/well (30 μg/mL) or higher, 72 hours, bacteria added at 0, 24 and 48 h
Protocol: Materials and Methods. • A Versamax™ temperature-controlled spectrophotometeric plate reader was used to continuously monitor growth of bacteria. This device accepts standard microtiter plates and maintains a constant temperature as desired. It therefore serves both as an incubator and as a plate reader that quantitatively monitors bacterial growth by following the development of turbidity in the wells. The device is supported by software which allows generation of individual growth curves for each well. • Enterococcus faecalis strain G was used. This bacterium was selected to establish a baseline to which other bacteria may be compared in the future. It is a stable strain and is streptomycin-resistant, which allows the use of this antibiotic agent in the growth media to reduce the incidence of accidental contamination with other bacterial strains. • Growth medium and conditions. The tests were conducted using Brain-Heart Infusion broth (BHI) as growth medium. This medium contained 1 mg/100 ml glucose which is approximately equivalent to serum concentration of glucose. […] Bacteria were added at 10^6 CFU/well and the turbidity in the well was continuously monitored for up to 24 h to monitor the growth of the bacteria. […] Bacteria were added at 10^6 CFU/well, and the turbidity in the well was continuously monitored for 24 h to monitor bacterial growth. […]

[3] = GOx activity assay (o-Dianisidine/peroxidase, optical density at 490 nm); format: biochemical; details: 0.03 mg/ml GOx
Protocol: An assay was set up that included: • 48 mM sodium acetate buffer, pH 5.1 • 0.16 mM o-Dianisidine • 1.61% (w/v) glucose • 2 units/ml peroxidase
The above components undergo the following reactions in combination with GOx:
β-D-glucose+O2+H2O→D-Gluconolactone+H2O2 Reaction 1
H2O2+o-Dianisidine(reduced)→o-Dianisidine(oxidized) Reaction 2
The optical density of the assay at 490 nm indicates the concentration of oxidized o-Dianisidine in the assay, oxidized o-Dianisidine being the final product of Reactions 1 and 2. […] The assay was set up in a 96-well plate, in accordance with enzyme-linked immunosorbent assay (ELISA) techniques, as are known in the art. An ELISA reader, as is known in the art, was used to determine the optical density of the assay.
An assay was set up, in accordance with the techniques described with reference to Experiment 1.
The above components, in combination with glucose, undergo Reactions 1 and 2 described with reference to Experiment 1 hereinabove.
Different concentrations of glucose were added to the assay, and the optical density of the assay after five minutes was measured with 490 nm light.
The above assay was set up with sodium acetate buffer of a pH that varied from 4 to 7.7.

Compound	inhibition of bacterial growth ([1]; 4 μg/well (20 μg/mL), 24 h)	MIC ([1]; Enterococcus faecalis, 24 h, read-out: minimal inhibitory concentration (MIC)) [µg/mL]	inhibition of bacterial growth ([1]; Triclosan 5 μg/well (25 μg/mL) and above, 24 h)	minimal inhibitory concentration (MIC) ([1]; 24 hour assay, BHI broth with 1 mg/100 ml glucose, 37 C, 106 CFU/well) [µg/mL]	inhibition of bacterial growth ([1]; GOx 6 μg/well (30 μg/mL) or higher, 24 h)	inhibition of bacterial growth, sustained effect [2]	influence of pH on GOx activity ([3]; 1.61% (w/v) glucose, sodium acetate buffer pH 4 to 7.7)	GOx activity at glucose levels of 80-120 mg/dL ([3]; pH 5.1, after five minutes, FIG. 6A)
Oc1cc(Cl)ccc1Oc1ccc(Cl)cc1Cl [Triclosan, reference compound]	failed to inhibit	25 (≈ 86.3 µM)	substantially inhibitory	–	–	–	–	–
glucose oxidase [GOx]	failed to inhibit	–	–	30	substantially inhibitory; also recorded: zero bacterial growth	substantially complete inhibition	not substantially influenced	active; also recorded: approximately constant activity

Reference: patent publication US20100179646A1 (Rainbow Medical Ltd., priority 2009, published 2010)
